The test system of series [1] is GAPDH-targeted RapaCasp9 PSC line. Kind of series: Flow cytometric analysis of cleaved Caspase 3 after rapamycin treatment. It counts as cell-based, human. The note with it: 5nM or 10 nM rapamycin, 24 hours of treatment. The procedure:
A GAPDH-targeted RapaCasp9 PSC line was treated with either 5nM or 10 nM of rapamycin for 1, 2, 4 or 24 hours, and cells were harvested for flow cytometric analysis after each timepoint (FIG. 17). The primary antibody used was an anti-human/mouse cleaved caspase-3 conjugated to an Alexa Fluor® 488 […]. The primary antibody detects human and mouse Caspase 3 cleaved at Asp175. Caspase 3 is an executioner caspase that functions downstream of the initiator caspase, Caspase 9, in the apoptotic cascade. […] Upon induction of apoptosis through either cell stress or activation, it undergoes proteolysis into cleaved Caspase 3 subunits. […] There was negligible detection of cleaved Caspase 3 for edited PSCs not treated with rapamycin.
Background: In flow cytometry, cells or beads pass a laser one at a time.

The subject of another series is RPL13A locus. Kind of series: gRNA cutting efficiency by ICE analysis, RPL13A locus. Particulars: RNP with Cas9 nucleofected into human PSCs, gDNA at 72 hours. Format: cell-based. The method, then: (§1) CRISPR-Cas9 gene editing was performed to insert transgenes into the intended STEL sites in the following experiments. Three guide RNAs (gRNAs) were designed computationally to target the 3′ UTR of GAPDH proximal to the stop codon. Five gRNAs were designed computationally to target the 3′ UTR of RPL13A proximal to the stop codon. These gRNAs were designed to have a low number of off-target sites and have a high predicted activity against the target sequence.
(§2) To test gRNA cutting efficiency, gRNAs complexed with Cas9 nuclease were delivered as ribonucleoproteins (RNPs) separately into human PSCs via nucleofection. At 72 hours following nucleofection, gDNA was extracted from each pool of nucleofected cells. A region around the GAPDH or RPL13A locus intended cut site was PCR-amplified using the following primers: […]
(§3) Overall cutting efficiency of each gRNA was determined by Inference of CRISPR Edits (ICE) Analysis by comparing a Sanger sequencing chromatogram from unedited cells to the Sanger sequencing chromatogram from each gRNA condition.

The next series has as its system GAPDH locus. The experiment in a line: gRNA cutting efficiency by ICE analysis, GAPDH locus. It counts as cell-based. The note with it: RNP with Cas9 nucleofected into human PSCs, gDNA at 72 hours. The method, then: as §1, §2, §3

With `CO[C@H]1C[C@@H]2CC[C@@H](C)[C@@](O)(O2)C(=O)C(=O)N2CCCC[C@H]2C(=O)O[C@H]([C@H](C)C[C@@H]2CC[C@@H](O)[C@H](OC)C2)CC(=O)[C@H](C)/C=C(\C)[C@@H](O)[C@@H](OC)C(=O)[C@H](C)C[C@H](C)/C=C/C=C/C=C/1C` [rapamycin], in series [1], the “cells staining for cleaved Caspase 3” value is listed as above 99%. Take “5′-GGAAGGGCAGGCAACGCAUG-3′ (SEQ ID NO:8) (listed as RNA, chemistry not given here) [RPL13A gRNA, guide RNA targeting the 3′ UTR of RPL13A proximal to the stop codon]”: the relative cutting efficiency result in the series with RPL13A locus is on record as “highest relative cutting efficiencies”.

For the compound “5′-CUUCCUCUUGUGCUCUUGCU-3′ (SEQ ID NO:7) (listed as RNA, chemistry not given here) [GAPDH gRNA, guide RNA targeting the 3′ UTR of GAPDH proximal to the stop codon]”, the relative cutting efficiency result with GAPDH locus is “highest relative cutting efficiencies”.

The record behind these values is patent US20240060047A1, “CELLS WITH SUSTAINED TRANSGENE EXPRESSION” (BlueRock Therapeutics LP, priority 2019, published 2024).
